These results are taken from ChEMBL document CHEMBL4196068, “Synthesis, molecular modeling and evaluation of α-glucosidase inhibition activity of 3,4-dihydroxy piperidines” (Eur J Med Chem, 2018).

The subject of the first experiment is Saccharomyces cerevisiae. Nature of the experiment: Potency index, ratio of voglibose IC50 to compound IC50 for inhibition of Saccharomyces cerevisiae alpha-glucosidase.
Regarding `Nc1ccc(CCC(=O)N2CC[C@@H](O)[C@@H](O)C2)cc1` (relative stereo), the Ratio IC50 lay within 2 to 3.

Turning to `O=C(CCc1ccc(NS(=O)(=O)c2ccc(C(F)(F)F)cc2)cc1)N1CC[C@H](O)[C@H](O)C1` (relative stereo), the Ratio IC50 is 3 to 4.

Biological target in a further experiment: not listed separately
Nature of the experiment: Inhibition of Saccharomyces cerevisiae alpha-glucosidase using p-nitrophenyl-alpha-D-glucopyranoside as substrate preincubated for 15 to 20 mins followed by substrate addition measured after 45 to 60 mins by spectrophotometric analysis.
One may read the IC50 as the concentration that gives 50% inhibition. Lower therefore signals greater potency. Regarding `CC(C)(C)OC(=O)Nc1ccc(CCC(=O)Nc2ccc(CCC(=O)N3CC[C@H](O)[C@H](O)C3)cc2)cc1` (relative stereo), the IC50 worked out at 383 µM.

The compound `O=C(/C=C/c1ccsc1)N1CC[C@@H](O)[C@@H](O)C1` (relative stereo) registered a half-maximal inhibitory concentration (IC50) of 888 µM.

Turning to `Nc1ccc(CCC(=O)Nc2ccc(CCC(=O)N3CC[C@H](O)[C@H](O)C3)cc2)cc1` (relative stereo), half-maximal inhibition (IC50) was put at 247 µM.

Compound `O=C(CCc1ccc(O)cc1)N1CC[C@@H](O)[C@@H](O)C1` (relative stereo) gave an IC50 of 292 µM.

As to `O=S(=O)(c1ccc(OC(F)(F)F)cc1)N1CC[C@@H](O)[C@@H](O)C1` (relative stereo), the IC50 is 465 µM.

Turning to `C[C@H]1O[C@H](O[C@H]2[C@H](O)[C@@H](O)[C@@H](O[C@H]3[C@H](O)[C@@H](O)C(O)O[C@@H]3CO)O[C@@H]2CO)[C@H](O)[C@@H](O)[C@@H]1N[C@H]1C=C(CO)[C@@H](O)[C@H](O)[C@H]1O` (stereo partly specified) [ACARBOSE], the IC50 was determined as 360 µM.

`O=C(CCc1ccc(O)cc1)Nc1ccc(CCC(=O)N2CC[C@H](O)[C@H](O)C2)cc1` (relative stereo): the IC50 came to 284 µM.

With `Nc1ccc(CCC(=O)N2CC[C@@H](O)[C@@H](O)C2)cc1` (relative stereo), 211 µM corresponded to half-maximal inhibition (IC50).

The compound `CC(C)(C)OC(=O)Nc1ccc(CCC(=O)N2CC[C@@H](O)[C@@H](O)C2)cc1` (relative stereo) yielded an IC50 of 663 µM.

`O=C(CCc1ccsc1)N1CC[C@H](O)[C@@H](O)C1` (relative stereo) returned an IC50 of 152 µM.

Compound `O=C(CCc1ccc(O)cc1)N1CC[C@H](O)[C@@H](O)C1` (relative stereo) showed an IC50 of 422 µM.

With `O=C(/C=C/c1ccc(O)cc1)N1CC[C@@H](O)[C@@H](O)C1` (relative stereo), 442 µM corresponded to half-maximal inhibition (IC50).

`O=C(/C=C/c1ccc(F)cc1)Nc1ccc(CCC(=O)N2CC[C@H](O)[C@H](O)C2)cc1` (relative stereo) registered a half-maximal inhibitory concentration (IC50) of 349 µM.

For the compound `O=C(CCc1ccc(NS(=O)(=O)c2ccc(C(F)(F)F)cc2)cc1)N1CC[C@H](O)[C@H](O)C1` (relative stereo), 103 µM corresponded to half-maximal inhibition (IC50).

For `O=C(/C=C/c1ccsc1)Nc1ccc(CCC(=O)N2CC[C@H](O)[C@H](O)C2)cc1` (relative stereo), the IC50 came to 667 µM.

Regarding `O=C(CCc1ccc(C(F)(F)F)cc1)N1CC[C@@H](O)[C@@H](O)C1` (relative stereo), the IC50 was determined as 742 µM.

In turn, `OCC(CO)N[C@H]1C[C@](O)(CO)[C@@H](O)[C@H](O)[C@H]1O` [VOGLIBOSE] gave an IC50 of 325 µM.

`Nc1ccc(CCC(=O)Nc2ccc(CCC(=O)N3CC[C@@H](O)[C@H](O)C3)cc2)cc1` (relative stereo) registered an IC50 of 384 µM.

Compound `O=C(CCc1ccc(N(S(=O)(=O)c2ccc(C(F)(F)F)cc2)S(=O)(=O)c2ccc(C(F)(F)F)cc2)cc1)N1CC[C@H](O)[C@H](O)C1` (relative stereo) displayed an IC50 of 594 µM.

For `O=C(CCc1ccc(C(F)(F)F)cc1)Nc1ccc(CCC(=O)N2CC[C@H](O)[C@H](O)C2)cc1` (relative stereo), the midpoint of inhibition, the IC50, lay at 479 µM.

With `O=C(CCc1ccc(NS(=O)(=O)c2ccc(F)cc2)cc1)N1CC[C@H](O)[C@H](O)C1` (relative stereo), the midpoint of inhibition, the IC50, lay at 749 µM.

Regarding `O=C(/C=C/c1ccc(C(F)(F)F)cc1)Nc1ccc(CCC(=O)N2CC[C@@H](O)[C@H](O)C2)cc1` (relative stereo), the midpoint of inhibition, the IC50, lay at 710 µM.

The compound `Cn1c(CCC(=O)N2CC[C@@H](O)[C@@H](O)C2)cc2ccccc21` (relative stereo) showed an IC50 of 389 µM.

For `CC(C)(C)OC(=O)Nc1ccc(CCC(=O)Nc2ccc(CCC(=O)N3CC[C@@H](O)[C@H](O)C3)cc2)cc1` (relative stereo), inhibition was half-maximal at 746 µM (IC50).

Consider `O=C(/C=C/c1ccc(C(F)(F)F)cc1)Nc1ccc(CCC(=O)N2CC[C@H](O)[C@H](O)C2)cc1` (relative stereo), for which inhibition was half-maximal at 890 µM (IC50).

`O=C(Nc1ccc(CCC(=O)N2CC[C@H](O)[C@H](O)C2)cc1)c1ccsc1` (relative stereo) showed an IC50 of 267 µM.

Compound `OCCN1C[C@H](O)[C@@H](O)[C@H](O)[C@H]1CO` [MIGLITOL] showed a 50% inhibitory concentration (IC50) of 462 µM.

Consider `O=C(CCc1ccccc1)N1CC[C@@H](O)[C@@H](O)C1` (relative stereo), for which the IC50 was found to be 994 µM.

In turn, `Nc1ccc(CCC(=O)N2CC[C@H](O)[C@@H](O)C2)cc1` (relative stereo) gave an IC50 of 289 µM.

In turn, `O=C(CCc1ccc(O)cc1)Nc1ccc(CCC(=O)N2CC[C@@H](O)[C@H](O)C2)cc1` (relative stereo) registered an IC50 of 488 µM.

Another experiment relates to Saccharomyces cerevisiae. The experiment can be described thus: Potency index, ratio of acarbose IC50 to compound IC50 for inhibition of Saccharomyces cerevisiae alpha-glucosidase.
Regarding `Nc1ccc(CCC(=O)N2CC[C@@H](O)[C@@H](O)C2)cc1` (relative stereo), the Ratio IC50 is 2 to 3.

On to `O=C(CCc1ccc(NS(=O)(=O)c2ccc(C(F)(F)F)cc2)cc1)N1CC[C@H](O)[C@H](O)C1` (relative stereo), for which the Ratio IC50 lay within 3 to 4.

A further experiment has as its system Saccharomyces cerevisiae. Nature of the experiment: Potency index, ratio of miglitol IC50 to compound IC50 for inhibition of Saccharomyces cerevisiae alpha-glucosidase.
For `Nc1ccc(CCC(=O)N2CC[C@@H](O)[C@@H](O)C2)cc1` (relative stereo), the Ratio IC50 was 2 to 3.

As to `O=C(CCc1ccc(NS(=O)(=O)c2ccc(C(F)(F)F)cc2)cc1)N1CC[C@H](O)[C@H](O)C1` (relative stereo), the Ratio IC50 lay in the range of 3 to 4.
